Data as given in patent publication US8618055B2, “Prominin-1 peptide fragments and uses thereof” (Children's Medical Center Corporation, priority 2008, dated 2013).
“Also recorded” adds a separate entry of the source.

How the values were obtained:
B16-F10 melanoma cells = assay: I125-VEGF binding to melanoma cells in presence of peptide; assay type: cell-based; conditions: I125-VEGF 12 ng/ml, 3 h on ice
Method: (§1) 10000 cells were incubated in binding buffer containing 20 mM Hepes, 0.1% BSA and I125-VEGF (12 ng/ml) for 3 h on ice.
(§2) In order to characterize the effect of the peptides on VEGF binding to endothelial and melanoma cells, the cells were incubated with various peptides (720 μg/ml) in the presence of […] (12 ng/ml) (FIG. 3). Peptide #237 increased VEGF binding to endothelial as well to melanoma cells. 10000 cells were incubated in binding buffer containing 20 mM Hepes, 0.1% BSA and I^125-VEGF (12 ng/ml) for 3 h on ice. Following 3 washings, the radioactive levels were determined by gamma counter. An increase of more than 25 times in I^125-VEGF binding was observed when peptide #237 was added to both kinds of cells. All other peptides had no effect on VEGF binding.
(§3) To characterize which are the essential amino acids within the #237 peptide that are crucial to accelerate VEGF binding to the cells, three shorter peptides were designed as presented at Table 2. The cells were treated with the smaller peptides in the same way as described in FIG. 3. 10000 cells were incubated in binding buffer containing 20 mM Hepes, 0.1% BSA, I^125-VEGF (12 ng/ml) and 100 μg/ml of each peptide, for 3 h on ice. Following 3 washings with binding buffer, the radioactive levels were determined using a gamma counter.

endothelial cells [1] = assay: I125-VEGF binding to endothelial cells in presence of peptide; assay type: cell-based; conditions: for VEGF binding to cells (endothelial cells) with #237 fragments: 100 μg/ml of each peptide
Method: as §1, §2, §3
The inventors also investigated which amino acid residues in peptide #237 are important for the various angiogenic and VEGF related binding activity described herein. To achieve this, the inventors singly changed each of the 12 amino acid residues in peptide #237 to alanine and performed experiments examining the effect of the alanine substitution at various positions on endothelial cell binding to VEGF. A total of 12 alanine substituted peptides were made and tested: Ala-1, Ala-2, Ala-3, Ala-4, Ala-5, Ala-6, Ala-7, Ala-8, Ala-9, Ala-10, Ala-11, Ala-12, (SEQ. ID. NOS. 39-50) wherein the number indicate the position where the alanine substitution occurred. (Note that the amino acid at position 12 of peptide #237 was changed to glycine in Ala-12). In addition, a “flip #237” peptide having the sequence AAVVTTTQRQVRD (SEQ. ID. NO. 53) was also made and studied.

nude mouse ear wound = assay: Ear wound neovascularization model; assay type: in vivo; conditions: matrigel containing #237 (180 μg) daily for 5 days, 2.25 mm punch, vs plain matrigel
Method: Microvascular in-growth into damaged tissue is an essential component of the normal healing process. In fact, wound therapy is often aimed at promoting neovascularization. The model consists of wounding the dorsal aspect of the ear of a nude mouse. A circular punch was used to create a standardized wound on a nude mouse ear. Constant diameter of wound is given by the size of the punch (2.25 mm), and the ears were treated daily with plain matrigel (FIG. 8A) or matrigel containing peptide #237 (180 μg) (FIG. 8B) for 5 days. […] In order to evaluate the wound neovascularization, the mice were inoculated by dextran-FITC which specifically labeled the endothelial cells, immediately after anesthetizing them.

[2] = tested on: calvaria critical size defect; assay: Calvaria critical size defect bone repair experiment; assay type: in vivo, rat; conditions: local treatment 28 days, 100 μg/mice/5 days, 5-mm defect, vs saline
Method: In this study, the inventors examined the ability of peptide #237 to enhance repair of a critical size defect in a rat calvaria critical size defect experiment. Critical size calvarial defects (5-mm diameter) were created in rats and locally treated with saline (control) or peptide #237 for 28 days (100 μg/mice/5 days). After 28 days, analysis of bone regeneration was determined by soft x-ray.

mouse ear wound = assay: Mouse ear punch wound healing model, 14 days; assay type: in vivo; conditions: MATRIGEL containing #237 daily, day 14, vs MATRIGEL
Method: In addition to increasing angiogenesis, peptide #237 also accelerates wound healing. In order to evaluate the effect of the peptide on wound healing, ears of five mice were wounded using a circular punch, which creates a wound measuring 1 mm. The ears of wounded mice were treated daily with either MATRIGEL or MATRIGEL containing #237 peptide for 14 days.

endothelial cells [3] = assay: Matrigel assay, endothelial cell migration in vivo (FACS); design: species or system C57bl mice; conditions: for endothelial cells among matrigel liberated cells (FACS, CD31): Matrigel s.c. with 500 ng VEGF, with or without 180 μg #237, day 6
Method: On day 6, animals were sacrificed and fluorescence-activated cell sorting (FACS) analysis was used for determination of the matrigel liberated cells. In order to distinguish the endothelial cells from hematopoietic cells, the cells were incubated with two antibodies CD31-PE and CD45-APC which are specific to endothelial cells and hematopoietic cells respectively.

mouse corneas = assay: Corneal micropocket assay with VEGF pellet; assay type: in vivo; conditions: pellet 160 ng VEGF 165 + 1.3 ug #237 vs VEGF pellet alone, 5 days
Method: Vigorous vessel in-growth from the limbus at 5 days was recorded as a positive response.
In order to evaluate the modulating effect of peptide #237 on the angiogenesis process, a corneal micropocket assay was performed. Two kinds of pellets were created, both containing 160 ng carrier-free recombinant human VEGF 165 (R&D Systems, Minneapolis, Minn.), one of which contains 1.3 ug of #237 peptide. The pellets were implanted into micropockets created in the cornea of two groups of anesthetized mice (n=4). Through the use of standardized slow-release pellets, a predictable angiogenic response is generated over the course of 5 days and then quantified. The area of neovascularization was calculated as vessel area, which is calculated as the product of vessel length measured from the limbus and clock hours around the cornea, using the following equation: vessel area (mm^2)=[clock hours×vessel length (mm)×0.2 mm]. […] The in vivo experiment confirms that the peptide stimulates cell proliferation, and is therefore a good candidate to induce angiogenesis.

ischemic hind limb = assay: Mouse hind limb ischemia model (femoral artery ligation, laser Doppler); assay type: in vivo
Method: Mice were ligated in one of their femoral arteries (the right limb) to simulate hind limb ischemia. The blood flow in mice was analyzed by machine for each mouse before and immediately after the procedure to evaluate if the femoral was ligated properly. Blood flow was compared with the non-operated leg by a laser Doppler imager. […] The ischemic limb is seen as the limb on left side in the laser Doppler images.
In FIG. 12, the white areas indicate normal perfusion with normal blood circulation and black areas indicate no blood flow in the ischemic left hind limb. […] Dark shaded areas within the white areas located at the distal ends of the limbs indicate extremely good blood flow.
The blood flow of the ischemic hind limb is expressed as the ratio between the perfusion of the ischemic limb and the uninjured limb in FIG. 13.

[4] = tested on: Primary cortical neuronal cells; assay: Neurite outgrowth in primary cortical neuronal cells; assay type: cell-based; conditions: 0.25 μg/μL, 2 days, compared to scrambled peptide
Method: Primary cortical neuronal cells (2×10^4 per well) were plated on poly-L-lysine coated 24 well dishes and treated with either scrambled #237 or peptide #237 (0.25 μg/μL). Cells were then cultured for 2 days.
Neurite outgrowth was evaluated by counting the number of neurites extended from the same number of cells and at the same area.
Peptide 237 increases neurite outgrowth in terminally differentiated cortical neurons. The number of neurite arborizations in these postmitotic cells was estimated using light microscopy by manually counting the number of projections in a given field containing approximately equivalent number of cells. Quantification of neurite outgrowth was also performed by fluorescent staining with a neuron-specific marker (i.e., neurofilament) followed by automated, computational analysis (data not shown).

Which results are given for TTTVVA [#237B]?
VEGF binding to melanoma cells with #237 fragments (B16-F10 melanoma cells; 100 μg/ml of each peptide): better binding; VEGF binding to cells (endothelial cells) with #237 fragments (endothelial cells [1]; I125-VEGF 12 ng/ml, 3 h on ice): partially increases; also recorded: partial increase

For “Ala-5: peptide #237 with the arginine at position 5 replaced by alanine (DRVQAQTTTVVA)”, which “ability of endothelial cells to bind VEGF, alanine substituted #237 peptides” value (endothelial cells [1]; compared to the original #237) is on record?
The value was “increased by more than twice”.

VQRQTTTV [#237C] was tested. Which “VEGF binding to cells (endothelial cells) with #237 fragments” value (endothelial cells [1]; I125-VEGF 12 ng/ml, 3 h on ice) did it give?
The value was “abolished; also recorded: essentially eliminated”.

DRVQRQTTTVVA [Peptide #237] was tested. Which “neovascularization around the ear wound site” value (nude mouse ear wound) did it give?
Its value is “significantly increased”.

And the “bone regeneration (soft x-ray)” value [2]?
Its value is “completely sealed and covered the aperture”.

And the “increase in I125-VEGF binding to melanoma cells” value (B16-F10 melanoma cells; peptide 720 μg/ml, 10000 cells)?
Its value is “more than 25 times”.

And the wound area (mouse ear wound)?
Its wound area is “significantly smaller”.

And the “endothelial cells relative to VEGF alone” value (endothelial cells [3]; 180 ug #237 added to VEGF in Matrigel, day 6)?
Its value is “six times more”.

What about the “endothelial cells among matrigel liberated cells (FACS, CD31)” value (endothelial cells [3]) of the same substance?
The value was 0.42%.

What about the “increase in vessel density versus control pellet” value (mouse corneas) of the same substance?
The value was 53%.

What about the “increase in I125-VEGF binding to endothelial cells” value (endothelial cells [1]; peptide 720 μg/ml, I125-VEGF 12 ng/ml, 10000 cells, 3 h on ice) of the same substance?
The value was “more than 25 times”.

And the limb perfusion (ischemic hind limb; intraperitoneal immediately following femoral artery occlusion, within three to six days)?
The limb perfusion was “significantly improves limb perfusion”.

What about the “increase perfusion compared to saline-treated mice” value (ischemic hind limb; ratio ischemic/uninjured limb, on average) of the same substance?
The value was 30-40%.

And the neurite outgrowth [4]?
The neurite outgrowth was “dramatically induces branched and longer neurites”.

With DRVQRQ [#237A] as the substance, how does the “VEGF binding to cells (endothelial cells) with #237 fragments” value (endothelial cells [1]; I125-VEGF 12 ng/ml, 3 h on ice) read?
Its value is “abolished; also recorded: not crucial to enhance VEGF binding”.

VEGF [reference compound] was tested. Which “endothelial cells among matrigel liberated cells (FACS, CD31)” value (endothelial cells [3]) did it give?
The value was 0.07%.
